Laboratory results: patent US8143259B2, “Cold menthol receptor antagonists” (Janssen Pharmaceutica, NV, priority 2008, dated 2012)

Target: T1, canine TRPM8 (Canis lupus familiaris, UniProt Q1A7N1)
T1 construct: expressed in transfected cells
Assay: In Vitro Canine TRPM8 Functional Assay (Ca2+ fluorescence, icilin activation)
Type: cell-based
Details: for inhibition at 0.5 µM: HEK293, 0.5 μM compound; for IC50: HEK293 cells stably expressing canine TRPM8, icilin activation, Ca2+ fluorescence; for % Inh @ 0.2 μM: 0.2 μM compound; for inhibition at 0.2 µM: HEK293, 0.2 μM compound; for % Inh @ 0.5 μM: 0.5 μM compound
Summary of the method: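 HEK293 cells stably expressing canine TRPM8, loaded with Calcium 3 dye; compounds added 5 min before icilin at a concentration giving ~80% maximal response. Peak icilin-evoked Ca2+ fluorescence, basal-subtracted and normalised to maximal response, fitted by sigmoidal nonlinear regression; quadruplicate wells.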

[1] = canine TRPM8 HEK293, icilin, 0.2 µM
[2] = canine TRPM8 HEK293, icilin, 0.5 µM

T1 sequence (Q1A7N1 1-1104): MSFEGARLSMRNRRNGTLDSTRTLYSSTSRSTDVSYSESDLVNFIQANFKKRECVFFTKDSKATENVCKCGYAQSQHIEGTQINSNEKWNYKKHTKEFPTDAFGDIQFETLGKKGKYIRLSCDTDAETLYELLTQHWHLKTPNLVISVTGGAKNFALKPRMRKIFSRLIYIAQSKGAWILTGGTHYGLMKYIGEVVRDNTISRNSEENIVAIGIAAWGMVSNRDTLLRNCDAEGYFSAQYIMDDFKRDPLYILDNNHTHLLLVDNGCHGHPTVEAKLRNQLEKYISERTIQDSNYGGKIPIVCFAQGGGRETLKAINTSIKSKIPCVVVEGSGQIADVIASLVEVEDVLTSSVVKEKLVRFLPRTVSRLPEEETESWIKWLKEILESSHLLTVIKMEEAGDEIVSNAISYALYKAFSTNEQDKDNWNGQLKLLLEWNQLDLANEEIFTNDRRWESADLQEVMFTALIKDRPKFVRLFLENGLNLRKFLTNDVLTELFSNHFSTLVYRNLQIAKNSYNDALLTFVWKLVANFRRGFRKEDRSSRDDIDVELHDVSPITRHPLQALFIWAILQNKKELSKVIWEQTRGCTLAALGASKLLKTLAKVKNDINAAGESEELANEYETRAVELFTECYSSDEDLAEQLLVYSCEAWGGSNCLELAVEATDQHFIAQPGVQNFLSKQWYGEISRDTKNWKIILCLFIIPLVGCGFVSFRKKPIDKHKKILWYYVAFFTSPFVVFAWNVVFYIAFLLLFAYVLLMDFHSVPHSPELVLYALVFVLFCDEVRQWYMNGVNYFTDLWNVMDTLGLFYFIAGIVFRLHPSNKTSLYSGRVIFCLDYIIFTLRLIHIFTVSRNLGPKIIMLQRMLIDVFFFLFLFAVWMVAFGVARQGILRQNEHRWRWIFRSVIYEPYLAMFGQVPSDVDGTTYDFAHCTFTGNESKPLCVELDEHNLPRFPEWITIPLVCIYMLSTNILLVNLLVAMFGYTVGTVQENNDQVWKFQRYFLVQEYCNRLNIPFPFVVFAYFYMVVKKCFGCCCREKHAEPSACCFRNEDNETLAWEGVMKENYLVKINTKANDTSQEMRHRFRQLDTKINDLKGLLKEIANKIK

IC50 [nM] | inhibition at 0.2 µM (canine TRPM8 HEK293, icilin) [%] | Compound | other results
422 | 72 | O=C(C(c1ccc(C(F)(F)F)cc1)N1CCCc2ccccc21)N1CCCC1c1ccccc1 (centres unmarked) [Cpd 291] | –
112 | – | O=C(C(Nc1ccccc1F)c1ccc(Br)cc1)N1[C@H](CO)CC[C@@H]1c1ccccc1 (mixture of isomers) [Cpd 238] | –
7 | 98 | O=C(C(Nc1ccccc1F)c1cc2ccccc2s1)N1CCCC1c1ccccc1F (centres unmarked) [Cpd 225, 2-Benzo[b]thiophen-2-yl-2-(2-fluoro-phenylamino)-1-[2-(2-fluoro-phenyl)-pyrrolidin-1-yl]-ethanone] | –
2.6 | – | O=C(C(Nc1ccccc1F)c1cc2ccccc2s1)N1CCCC1c1ccccc1F (mixture of isomers) [Cpd 245] | % Inh @ 0.2 μM (canine TRPM8 HEK293, icilin): 98%
35 | 99 | O=C(C(Nc1ccccc1F)c1ccc(-n2ccnc2)cc1)N1CCCC1c1ccccc1F (centres unmarked) [Cpd 301] | –
115 | 88 | COC(=O)c1ccc(C2CCCN2C(=O)C(Nc2ccccc2F)c2ccc(-c3ccccn3)cc2)cc1 (centres unmarked) [Cpd 352] | –
56 | – | O=C(O)c1ccc(-c2ccc(C(Nc3ccccc3F)C(=O)N3CCCC3c3ccccc3F)cc2)cc1 (mixture of isomers) [Cpd 337] | % Inh @ 0.2 μM [1]: 91%
25 | 94 | O=C(C(Nc1ccccc1F)c1cc2ccccc2s1)N1CCCC1c1cccnc1 (centres unmarked) [Cpd 319] | –
17 | 101 | O=C(C(Nc1ccccc1F)c1ccc(-c2cccnc2)cc1)N1CCCC1c1ccccc1Cl (centres unmarked) [Cpd 343] | –
25 | 87 | O=C(C(Nc1ccccc1F)c1cc2cccnc2s1)N1CCCC1c1ccccc1F (racemic) [Cpd 320] | –
66 | 93 | O=C(O)c1ccc(C2CCCN2C(=O)C(Nc2ccccc2F)c2ccc(C(F)(F)F)cc2)cc1 (centres unmarked) [Cpd 222] | –

The remaining lines, values behind:

Compound | IC50 [nM] | inhibition at 0.2 µM (canine TRPM8 HEK293, icilin) [%] | other results
COc1ccc(C(Nc2ccccc2)C(=O)N2CCCC2c2ccccc2)cc1 (centres unmarked) [Cpd 72] | 46 | – | inhibition at 0.5 µM (canine TRPM8 HEK293, icilin): 102%
COC(=O)C1CCC(c2ccccc2)N1C(=O)C(Nc1ccccc1)c1ccc(Cl)cc1 (centres unmarked) [Cpd 213] | – | – | % Inh @ 0.2 μM [1]: 63%
O=C(C(Nc1ccccc1)c1ccc(C(F)(F)F)cc1)N1CCCC1c1ccccc1Br (centres unmarked) [Cpd 29] | 40.9 | – | inhibition at 0.5 µM (canine TRPM8 HEK293, icilin): 104%
O=C(C(Nc1ccccc1)c1ccc(C(F)(F)F)cc1)N1CCCC1c1ccccc1Cl (single isomer, unassigned) [Cpd 60] | 41.4 | – | % Inh @ 0.5 μM [2]: 103.24%
O=C(C(Nc1ccccc1)c1ccc(C(F)(F)F)cc1)N1CCCC1c1ccccc1F (centres unmarked) [Cpd 20] | 29.9 | – | inhibition at 1 µM (HEK293, 1 μM compound, canine TRPM8 HEK293, icilin): 101%
O=C(C(Nc1cccc(F)c1F)c1ccc(Cl)cc1)N1CCCC1c1ccccc1 (centres unmarked) [Cpd 168] | 35 | – | inhibition at 0.5 µM (canine TRPM8 HEK293, icilin): 97%
COc1ccccc1C1CCCN1C(=O)C(Nc1ccccc1F)c1ccc(Cl)cc1 (centres unmarked) [Cpd 111] | 13 | – | inhibition at 0.5 µM (canine TRPM8 HEK293, icilin): 96%
COc1ccc(NC(C(=O)N2CCCC2c2ccccc2Cl)c2ccc(Cl)cc2)cc1 (centres unmarked) [Cpd 136] | 193 | – | inhibition at 0.5 µM (canine TRPM8 HEK293, icilin): 90%
O=C(C(Nc1ccccc1)c1ccc(C(F)(F)F)cc1)N1CCCC1c1ccccc1F (single isomer, unassigned) [Cpd 46] | 7.46 | – | % Inh @ 0.5 μM [2]: 101.53%
O=C(C(CNc1ccccc1)c1ccc(C(F)(F)F)cc1)N1CCc2ccccc21 (racemic) [Cpd 40] | 233 | – | % Inh @ 0.5 μM (canine TRPM8 HEK293, icilin): 90.495%
COc1ccccc1C1CCCN1C(=O)C(Nc1ccccc1)c1ccc(C(F)(F)F)cc1 (centres unmarked) [Cpd 43] | 33.3 | – | inhibition at 0.5 µM (canine TRPM8 HEK293, icilin): 101%
O=C(C(Nc1ccccc1F)c1ccc(Cl)cc1)N1CCCC1c1ccccc1F (single isomer, unassigned) [Cpd 157] | 146 | – | inhibition at 0.5 µM (canine TRPM8 HEK293, icilin): 93%
O=C(C(Nc1ccccc1F)c1cncc2ccccc12)N1CCCC1c1ccccc1F (single isomer, unassigned) [Cpd 332] | – | – | % Inh @ 0.2 μM [1]: 47%
O=C(C(CNc1ccccc1)c1ccc(C(F)(F)F)cc1)N1CCCC1c1ccccc1 (mixture of isomers) [Cpd 94] | 162 | – | % Inh @ 0.5 μM [2]: 98%
